Source: US6740673B2, “Quarternary ammonium compounds” (UCB Farchim SA, priority 1998, dated 2004)

Test system: cough responses induced by citric acid (1M) aerosol in conscious guinea-pigs
Test: Antitussive activity against citric acid aerosol-induced cough in conscious guinea-pigs
Type: in vivo, guinea-pig (male albino Dunkin-Hartley)
Details: aerosol pre-treatment at 10.0 mg/ml immediately before citric acid (1M) exposure; for inhibition of cough responses compared with vehicle: vs vehicle (distilled water), 15 minute observation period
Text: The following method was one of the general methods available to determine the antitussive activity of the compounds of the present invention.
Male albino Dunkin-Hartley strain guinea-pigs (weight 300-400 g) were supplied by Harlan UK Ltd., Bicester, Oxon, UK.
The method used was modified from that described by Adcock J. J., Schneider C. and Smith T. W., “Effects of Morphine and a Novel Opioid Pentapeptide BW443C, on Cough, Nociception and Ventilation in the Unanaesthetized Guinea-pig”, Br. J. Pharmacol., 93, 93-100 (1988). Individual conscious guinea-pigs were placed unrestrained into a sealed purpose built perspex exposure chamber (3,000 cm^3 volume) and allowed to acclimatize prior to aerosol administration.
Cylinder air was introduced into the exposure chamber at a flow rate of 1 liter/min, maintained by a needle valve and monitored by a rotameter. From the rotameter the air passed through the cup of an ultrasonic nebulizer (DeVilbis UltraNeb 2000) which was used to generate aerosols of drug or citric acid at 0.15 ml/min. A Fleisch pneumotachograph, connected to a differential pressure transducer (Grass model PT5) was attached to the outflow from the exposure chamber and provided a measurement of airflow from the chamber. […]
Cough responses were induced by exposure to an aerosol of citric acid (1M) for 10 minutes. Animals were continuously monitored by trained observer, and the number of coughs were counted during a 15 minute period from commencement of the citric acid aerosol administration. […]
The three types of response were differentiated primarily by sound and visual observation. […] Data recorded for individual guinea-pigs on the Poh-Ne-Mah system was stored on an optical disk. Each cough was marked on the Grass polygraph paper trace, and from these record numbers, frequency and time of onset of coughs were determined. […]
Quantities of drugs were weighed out and dissolved in a vehicle. […] The sequence of pre-treatment administration was determined according to a 4×4 Latin Square design. […]

In the case of CC[N+](CC)(CC)CC(=O)N1CCc2ccccc21 [Compound 3, N-[(1-Indolinyl)carbonylmethyl]triethylammonium chloride], the “prolongation of mean latency of cough onset” value (time to first recorded cough) is reported as 2.5 fold and the “inhibition of cough responses compared with vehicle” value is reported as 36%.
In the case of C[N+](C)(CC(=O)Nc1ccccc1)CC(=O)N1CCc2ccccc21.[Cl-] [Compound 2, N-[(1-Indolinyl)carbonylmethyl]-N-(phenylcarbamoylmethyl) dimethylammonium chloride], the “inhibition of cough responses compared with vehicle” value is reported as 56%.
